# Reference: PubChem BioAssay (NCI)
#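 Five concentrations, 48 hours, 96-well plates. The concentration for full growth arrest is given as TGI.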
# Assays:
# Assay in all cases: growth of human tumour cells (NCI), 48 h
# MOLT-4 leukemia = test system: MOLT-4 leukemia
# UACC-257 melanoma = test system: UACC-257 melanoma
# SK-MEL-5 melanoma = test system: SK-MEL-5 melanoma
# KM12 colon = test system: KM12 colon
# LOX IMVI melanoma = test system: LOX IMVI melanoma
# OVCAR-3 ovarian = test system: OVCAR-3 ovarian
# RPMI-8226 leukemia = test system: RPMI-8226 leukemia
# ACHN renal = test system: ACHN renal
# HCT-116 colon = test system: HCT-116 colon
# HCT-15 colon = test system: HCT-15 colon
# M14 melanoma = test system: M14 melanoma
# A549 NSCLC = test system: A549 NSCLC
# OVCAR-4 ovarian = test system: OVCAR-4 ovarian
# HCC-2998 colon = test system: HCC-2998 colon
# CAKI-1 renal = test system: CAKI-1 renal
# SF-295 CNS = test system: SF-295 CNS
# HT29 colon = test system: HT29 colon
# DMS 114 small cell lung = test system: DMS 114 small cell lung
# EKVX NSCLC = test system: EKVX NSCLC
# K-562 leukemia = test system: K-562 leukemia
# SK-MEL-28 melanoma = test system: SK-MEL-28 melanoma
# SNB-78 CNS = test system: SNB-78 CNS
# SNB-75 CNS = test system: SNB-75 CNS
# NCI-H226 lung = test system: NCI-H226 lung
# M19-MEL melanoma = test system: M19-MEL melanoma
# MALME-3M melanoma = test system: MALME-3M melanoma
# NCI-H522 lung = test system: NCI-H522 lung
# SK-MEL-2 melanoma = test system: SK-MEL-2 melanoma
# CCRF-CEM leukemia = test system: CCRF-CEM leukemia
# UO-31 renal = test system: UO-31 renal
# OVCAR-5 ovarian = test system: OVCAR-5 ovarian
# COLO 205 colon = test system: COLO 205 colon
# SN12C renal = test system: SN12C renal
# XF 498 CNS = test system: XF 498 CNS
# HL-60(TB) leukemia = test system: HL-60(TB) leukemia
# NCI-H460 lung = test system: NCI-H460 lung
# TK-10 renal = test system: TK-10 renal
# OVCAR-8 ovarian = test system: OVCAR-8 ovarian
# DMS 273 small cell lung = test system: DMS 273 small cell lung
# SR leukemia = test system: SR leukemia
# HOP-62 NSCLC = test system: HOP-62 NSCLC
# SF-268 CNS = test system: SF-268 CNS
# SNB-19 CNS = test system: SNB-19 CNS
# 786-0 renal = test system: 786-0 renal
# DLD-1 colon = test system: DLD-1 colon
# SF-539 CNS = test system: SF-539 CNS
# SW-620 colon = test system: SW-620 colon
# NCI-H23 lung = test system: NCI-H23 lung
# U251 CNS = test system: U251 CNS
structure (smiles),measurement,setting,value
COc1cc(N)c2[nH]c3c(C)ccc(C)c3c2c1,TGI,MOLT-4 leukemia,> 100 µM
same,TGI,UACC-257 melanoma,> 100 µM
same,TGI,SK-MEL-5 melanoma,> 100 µM
same,TGI,KM12 colon,> 100 µM
same,TGI,LOX IMVI melanoma,> 100 µM
same,TGI,OVCAR-3 ovarian,> 100 µM
same,TGI,RPMI-8226 leukemia,> 100 µM
same,TGI,ACHN renal,> 100 µM
same,TGI,HCT-116 colon,> 100 µM
same,TGI,HCT-15 colon,> 100 µM
same,TGI,M14 melanoma,> 100 µM
same,TGI,A549 NSCLC,> 100 µM
same,TGI,OVCAR-4 ovarian,> 100 µM
same,TGI,HCC-2998 colon,> 100 µM
same,TGI,CAKI-1 renal,> 100 µM
same,TGI,SF-295 CNS,> 100 µM
same,TGI,HT29 colon,> 100 µM
same,TGI,DMS 114 small cell lung,> 100 µM
same,TGI,EKVX NSCLC,> 100 µM
same,TGI,K-562 leukemia,> 100 µM
same,TGI,SK-MEL-28 melanoma,> 100 µM
same,TGI,SNB-78 CNS,> 100 µM
same,TGI,SNB-75 CNS,> 100 µM
same,TGI,NCI-H226 lung,> 100 µM
same,TGI,M19-MEL melanoma,> 100 µM
same,TGI,MALME-3M melanoma,> 100 µM
same,TGI,NCI-H522 lung,> 100 µM
same,TGI,SK-MEL-2 melanoma,> 100 µM
same,TGI,CCRF-CEM leukemia,> 100 µM
same,TGI,UO-31 renal,> 100 µM
same,TGI,OVCAR-5 ovarian,> 100 µM
same,TGI,COLO 205 colon,> 100 µM
same,TGI,SN12C renal,> 100 µM
same,TGI,XF 498 CNS,> 100 µM
same,TGI,HL-60(TB) leukemia,> 100 µM
same,TGI,NCI-H460 lung,> 100 µM
same,TGI,TK-10 renal,> 100 µM
same,TGI,OVCAR-8 ovarian,> 100 µM
same,TGI,DMS 273 small cell lung,> 100 µM
same,TGI,SR leukemia,> 100 µM
same,TGI,HOP-62 NSCLC,> 100 µM
same,TGI,SF-268 CNS,> 100 µM
same,TGI,SNB-19 CNS,> 100 µM
same,TGI,786-0 renal,> 100 µM
same,TGI,DLD-1 colon,> 100 µM
same,TGI,SF-539 CNS,> 100 µM
same,TGI,SW-620 colon,> 100 µM
Nc1ccc2nc(Nc3ccc(Cl)c(Cl)c3)cnc2c1,TGI,MOLT-4 leukemia,97.7 µM
same,TGI,UACC-257 melanoma,71 µM
same,TGI,SK-MEL-5 melanoma,> 100 µM
same,TGI,KM12 colon,32.3 µM
same,TGI,LOX IMVI melanoma,28 µM
same,TGI,OVCAR-3 ovarian,36.7 µM
same,TGI,RPMI-8226 leukemia,54.4 µM
same,TGI,ACHN renal,91.9 µM
same,TGI,HCT-116 colon,33.4 µM
same,TGI,NCI-H23 lung,66.5 µM
same,TGI,HCT-15 colon,46.5 µM
same,TGI,M14 melanoma,27.4 µM
same,TGI,A549 NSCLC,41.9 µM
same,TGI,OVCAR-4 ovarian,60.4 µM
same,TGI,HCC-2998 colon,29.8 µM
same,TGI,CAKI-1 renal,> 100 µM
same,TGI,HT29 colon,36.9 µM
same,TGI,DMS 114 small cell lung,24.5 µM
same,TGI,EKVX NSCLC,> 100 µM
same,TGI,K-562 leukemia,82.5 µM
same,TGI,SK-MEL-28 melanoma,36.8 µM
same,TGI,SNB-78 CNS,> 100 µM
same,TGI,SNB-75 CNS,> 100 µM
same,TGI,NCI-H226 lung,41.8 µM
same,TGI,M19-MEL melanoma,39.2 µM
same,TGI,MALME-3M melanoma,35.3 µM
same,TGI,NCI-H522 lung,21.6 µM
same,TGI,SK-MEL-2 melanoma,37.7 µM
same,TGI,CCRF-CEM leukemia,9.57 µM
same,TGI,UO-31 renal,29.4 µM
same,TGI,OVCAR-5 ovarian,46.8 µM
same,TGI,COLO 205 colon,34.9 µM
same,TGI,SN12C renal,33 µM
same,TGI,U251 CNS,44.2 µM
same,TGI,HL-60(TB) leukemia,31.6 µM
same,TGI,NCI-H460 lung,45.3 µM
same,TGI,TK-10 renal,60.6 µM
same,TGI,OVCAR-8 ovarian,> 100 µM
same,TGI,DMS 273 small cell lung,34.1 µM
same,TGI,SR leukemia,35.5 µM
same,TGI,HOP-62 NSCLC,36.2 µM
same,TGI,SF-268 CNS,37.8 µM
same,TGI,SNB-19 CNS,38.7 µM
same,TGI,786-0 renal,33.1 µM
same,TGI,DLD-1 colon,> 100 µM
same,TGI,SF-539 CNS,64.5 µM
same,TGI,SW-620 colon,33.7 µM
